From patent US20130203718A1 (priority 2010, published 2013)

The compounds below were run against T1, hPRB and SMRT (Homo sapiens, UniProt P06401) (assay: Mammalian two hybrid assay, recruitment of co-repressor SMRT by hPRB). Conditions: HEK293T, FIGS. 13 and 14.
T1 construct: expressed in transfected cells; host or cells: HEK 293T
T1 sequence (P06401 1-933): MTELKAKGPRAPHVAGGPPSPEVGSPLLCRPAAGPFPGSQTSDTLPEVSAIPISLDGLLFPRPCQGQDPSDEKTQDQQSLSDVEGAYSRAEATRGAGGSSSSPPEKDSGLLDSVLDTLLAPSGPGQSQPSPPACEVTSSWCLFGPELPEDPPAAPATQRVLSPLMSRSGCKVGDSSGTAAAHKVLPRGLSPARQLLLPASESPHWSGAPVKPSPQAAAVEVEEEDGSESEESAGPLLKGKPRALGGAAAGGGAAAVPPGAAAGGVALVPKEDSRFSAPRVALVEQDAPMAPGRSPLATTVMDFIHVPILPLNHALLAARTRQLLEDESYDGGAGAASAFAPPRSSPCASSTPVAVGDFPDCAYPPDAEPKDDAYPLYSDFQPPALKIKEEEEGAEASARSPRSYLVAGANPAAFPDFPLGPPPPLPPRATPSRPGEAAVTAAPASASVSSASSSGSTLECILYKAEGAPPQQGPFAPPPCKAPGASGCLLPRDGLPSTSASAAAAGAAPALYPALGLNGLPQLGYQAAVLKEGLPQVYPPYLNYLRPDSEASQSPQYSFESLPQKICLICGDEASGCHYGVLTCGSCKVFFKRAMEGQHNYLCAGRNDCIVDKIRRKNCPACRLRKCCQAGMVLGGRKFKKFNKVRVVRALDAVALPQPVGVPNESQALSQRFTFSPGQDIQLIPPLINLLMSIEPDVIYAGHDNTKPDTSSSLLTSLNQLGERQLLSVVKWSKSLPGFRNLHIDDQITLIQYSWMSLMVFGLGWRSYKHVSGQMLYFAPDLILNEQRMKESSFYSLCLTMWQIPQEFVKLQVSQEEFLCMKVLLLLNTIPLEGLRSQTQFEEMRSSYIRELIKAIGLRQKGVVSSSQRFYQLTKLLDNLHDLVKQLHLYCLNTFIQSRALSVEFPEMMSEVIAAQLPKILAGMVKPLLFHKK
Type: cell-based
Procedure: Mammalian Two Hybrid Assays.
To investigate whether hPR was able to recruit transcriptional corepressors upon APRn binding, two hybrid assays have been performed in HEK 293T cells. Cell transfection were carried out according to the protocol used for the PR transactivation assays, with 1 μg of pGAL4-SMRT or pGAL4-NcoR, 2.5 μg of the PR expression vector pV16-PR and 5 μg of the reporter pG5-luc. The plasmid pGAL4-SMRT and pGAL4-NcoR, provided by P. Balaguer, encode the fusion protein between the GAL4 DNA-binding domain (GAL4DBD) and the receptor interacting domain (RID) of the corepressor […], respectively. The expression vector pV16PR encodes the VP16 activation domain of herpes simplex virus fused to the entire hPR and pG5-luc, provided by P. Fuller, encodes the luciferase gene driven by a GAL4-responsive promoter. […] Cell transfection were carried out according to the PR transactivation assays, by using 2 μg of pM-TIF2/Nter-RID or […], 2 μg of the expression vector pV16PR and 5 μg of the reporter pG5luc. The plasmids pM-TIF2/Nter-RID encodes the fusion proteins between the GAL4 DBD and the 1-867 TIF2 sequence corresponding to the Nter and RID domains. The plasmids pMTIF2-Nter encodes the fusion proteins between the GAL4 DBD and the 1-623 TIF2 sequence corresponding to the Nter domain. After 16 h incubation, the transfected cells were washed with PBS containing 2.5 mM EDTA, trypsinized and replated in 24-well plates. […] Cells were lysed and the luciferase and activities were quantified by using a Mithras reader microplates (Berthold).
Both agonist- and antagonist-bound PR regulate gene transcription with the assistance of transcriptional co-repressors (NCoR, SMRT) or co-activators (namely, TIF-2). To characterize the mechanism by which APRn inactivate hPRB, the capacity of hPRB to recruit transcriptional co-regulators upon APRn binding has been evaluated. […]

Compound | recruitment of co-repressor SMRT by hPRB upon ligand binding
CC(=O)[C@H]1CC[C@H]2[C@@H]3CC=C4C[C@@H](F)CC[C@]4(C)[C@H]3CC[C@]12C [APR-16, 3β-Fluoropregn-5-en-20-one] | unable to recruit
C[C@]12CCC3C(CC=C4C[C@@H](F)CC[C@@H]43)C1CCC2=O (stereo partly drawn) [APR-47, 3β-Fluoro-19-nor-androst-5-en-17-one] | unable to recruit
CC#C[C@]1(O)CCC2C3CC[C@H]4CCCC[C@@H]4C3CC[C@@]21C (stereo partly drawn) [APR-54, 17α-(1-Propynyl)-19-nor-5-androstan-17β-ol] | unable to recruit
